Results as given in PMC10953011, “Oxygen‐insensitive nitroreductase E. coli NfsA, but not NfsB, is inhibited by fumarate” (Proteins, 2022).

Experiments:
NfsA [1] = target: T1, NfsA (Escherichia coli, UniProt P17117); test: X-ray crystal structure ([…] Å); steady-state inhibition kinetics with nitrofurazone and NADPH; assay type: biochemical; set-up: untagged full-length, 240 residues, dimer
T1 sequence (P17117 1-240): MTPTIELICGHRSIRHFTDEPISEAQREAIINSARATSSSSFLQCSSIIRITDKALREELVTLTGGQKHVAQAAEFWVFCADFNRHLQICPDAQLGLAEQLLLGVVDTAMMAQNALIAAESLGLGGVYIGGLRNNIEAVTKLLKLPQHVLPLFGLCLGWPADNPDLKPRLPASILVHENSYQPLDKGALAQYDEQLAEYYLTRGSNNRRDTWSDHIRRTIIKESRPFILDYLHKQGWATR

NfsA [2] = target: T1, NfsA; test: steady-state inhibition kinetics with nitrofurazone and NADPH, […] nm; assay type: biochemical; set-up: untagged full-length

Row | SMILES | Ki (NfsA [1]) [µM] | Ki (NfsA [2]) [µM]
1 | O=C(O)/C=C/C(=O)O [fumarate] | 145 ± 28 | 
2 | O=C(O)CCC(=O)O [succinate] |  | 4300 ± 600
